Assays:
[1] = Oral bioavailability in Sprague-Dawley rat at 1 mg/kg, iv and 2 mg/kg, po; assay type: ADME, organism-based; settings: in vivo
[2] = AUC in Sprague-Dawley rat at 1 mg/kg, iv; assay type: ADME, organism-based; set-up: dose 1 mg/kg, route intravenous; settings: plasma
Estrogen receptor [3] = molecular target: T1, Estrogen receptor (Homo sapiens, UniProt P03372)
T1 sequence (P03372 whole entry): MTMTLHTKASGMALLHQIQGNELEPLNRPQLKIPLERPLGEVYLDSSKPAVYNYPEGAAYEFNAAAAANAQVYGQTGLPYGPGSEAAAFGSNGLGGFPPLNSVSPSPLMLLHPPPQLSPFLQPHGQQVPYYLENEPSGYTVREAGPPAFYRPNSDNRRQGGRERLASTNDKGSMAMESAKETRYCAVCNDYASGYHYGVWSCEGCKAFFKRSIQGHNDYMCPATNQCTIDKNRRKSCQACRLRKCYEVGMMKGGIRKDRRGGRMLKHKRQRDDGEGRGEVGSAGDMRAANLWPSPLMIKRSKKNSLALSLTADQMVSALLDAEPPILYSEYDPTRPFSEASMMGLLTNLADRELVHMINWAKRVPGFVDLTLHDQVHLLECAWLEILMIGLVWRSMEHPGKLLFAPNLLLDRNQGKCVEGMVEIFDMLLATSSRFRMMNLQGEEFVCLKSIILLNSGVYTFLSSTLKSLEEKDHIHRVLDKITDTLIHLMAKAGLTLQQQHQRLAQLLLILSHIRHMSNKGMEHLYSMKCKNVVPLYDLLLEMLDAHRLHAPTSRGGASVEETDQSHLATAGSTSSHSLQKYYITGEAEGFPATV
Description: Binding affinity to human ERalpha

Estrogen receptor beta [4] = molecular target: T2, Estrogen receptor beta (Homo sapiens, UniProt Q92731)
Description: Agonist activity at human ERbeta transfected in HEK293 cells assessed as transactivation of alkaline phosphatase reporter gene

Estrogen receptor beta [5] = molecular target: T2, Estrogen receptor beta; remark: listed apart in the source
Description: Binding affinity to human ERbeta

Estrogen receptor [6] = molecular target: T1, Estrogen receptor; remark: listed apart in the source
Description: Agonist activity at human ERalpha transfected in HEK293 cells assessed as transactivation of alkaline phosphatase reporter gene

[7] = Half life in Sprague-Dawley rat at 1 mg/kg, iv and 2 mg/kg, po; assay type: ADME, organism-based; settings: in vivo
[8] = Clearance in Sprague-Dawley rat at 1 mg/kg, iv and 2 mg/kg, po; assay type: ADME, organism-based; settings: in vivo

T2 sequence (Q92731 whole entry): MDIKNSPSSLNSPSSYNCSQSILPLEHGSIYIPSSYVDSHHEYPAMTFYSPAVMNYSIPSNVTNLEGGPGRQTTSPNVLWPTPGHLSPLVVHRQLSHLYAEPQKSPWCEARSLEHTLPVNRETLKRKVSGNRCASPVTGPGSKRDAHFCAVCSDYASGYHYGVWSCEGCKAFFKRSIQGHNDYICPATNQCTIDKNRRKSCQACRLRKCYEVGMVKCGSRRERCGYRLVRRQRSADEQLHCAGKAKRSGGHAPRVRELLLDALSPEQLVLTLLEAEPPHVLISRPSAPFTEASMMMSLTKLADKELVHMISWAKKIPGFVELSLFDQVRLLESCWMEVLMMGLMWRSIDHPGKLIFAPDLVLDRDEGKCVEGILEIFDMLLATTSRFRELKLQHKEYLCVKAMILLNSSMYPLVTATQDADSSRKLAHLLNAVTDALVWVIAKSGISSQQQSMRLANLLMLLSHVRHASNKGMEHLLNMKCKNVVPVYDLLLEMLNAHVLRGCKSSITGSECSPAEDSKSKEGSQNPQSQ

Structure (SMILES) | bioavailability [1] | AUC [2] | IC50 (Estrogen receptor [3]) | EC50 (Estrogen receptor beta [4]) | IC50 (Estrogen receptor beta [5]) | EC50 (Estrogen receptor [6]) | half-life [7] | clearance [8]
CC[C@@]12CCC(=O)C(C)=C1c1ccc3[nH]ncc3c1C2 | 51% | 1.5 µM·h | 1360 nM | 2.1 nM | 7.2 nM | 104 nM | 1.1 h | 44 mL/min/kg
CC[C@@]12CCC(=O)C(c3ccccc3)=C1c1ccc3[nH]ncc3c1C2 |  |  | 46 nM | 0.8 nM | 1.4 nM | 72 nM |  | 
O=C1CC[C@@]2(CC3CC3)Cc3c(ccc4[nH]ncc34)C2=C1Br |  |  | 230 nM |  | 4 nM |  |  | 
O=C1CC[C@@]2(CCC3CC3)Cc3c(ccc4[nH]ncc34)C2=C1Br | 51% | 0.8 µM·h | 229 nM | 0.9 nM | 1.6 nM | 61 nM | 1.2 h | 55 mL/min/kg
CC[C@@]12CCC(=O)C(C(F)(F)F)=C1c1ccc3[nH]ncc3c1C2=O | 62% | 3.2 µM·h | 58 nM | 0.4 nM | 1.5 nM | 10.4 nM | 1.2 h | 15 mL/min/kg
CCCC[C@@]12CCC(=O)C(C(=O)OC)=C1c1ccc3[nH]ncc3c1C2 |  |  | 2080 nM |  | 5.2 nM |  |  | 
C[C@@]12CCC(=O)C(C(F)(F)F)=C1c1ccc3[nH]ncc3c1C2 |  |  | 1480 nM |  | 8 nM |  |  | 
CC[C@]12CCC(=O)C(C)=C1c1ccc3[nH]ncc3c1C2 | 44% | 2 µM·h | > 10000 nM | 935 nM | 4460 nM | 1100 nM | 0.8 h | 31 mL/min/kg
CC[C@@]12CCC(=O)C(C(F)(F)F)=C1c1ccc3[nH]nc(F)c3c1C2 | 27% | 1.2 µM·h | 50.9 nM | 0.2 nM | 0.3 nM | 8.3 nM | 1.9 h | 42 mL/min/kg
CC[C@@]12CCC(=O)C(Cl)=C1c1ccc3[nH]ncc3c1C2 | 47% | 0.9 µM·h | 470 nM | 1.5 nM | 7.7 nM | 152 nM | 0.5 h | 72 mL/min/kg
CCC12CCC(=O)C(C(=O)OC)=C1c1ccc3[nH]ncc3c1C2 (racemic) |  |  | > 10000 nM | 210 nM | 207 nM | 1170 nM |  | 
CCCCC12CCC(=O)C(C)=C1c1ccc3[nH]ncc3c1C2 (racemic) |  |  | 1050 nM |  | 12 nM |  |  | 
CCCCC12CCC(=O)C(Br)=C1c1ccc(O)cc1C2 (racemic) | 0% | 0.5 µM·h |  |  |  |  | 1.5 h | 102 mL/min/kg
CCC12CCC(=O)C(C)=C1c1ccc3[nH]nc(Cl)c3c1C2 (racemic) |  |  | 2420 nM |  | 42.5 nM |  |  | 
CCCCC12CCC(=O)C(Br)=C1c1ccc3[nH]ncc3c1C2 (racemic) |  |  | 1410 nM |  | 4.9 nM |  |  | 
CC1=C2c3ccc4[nH]ncc4c3CC2(C)CCC1=O (racemic) |  |  | 4410 nM |  | 69 nM |  |  | 
CCCC12CCC(=O)C(C)=C1c1ccc3[nH]ncc3c1C2 (racemic) |  |  | 976 nM |  | 12.6 nM |  |  | 
CCC12CCC(=O)C=C1c1ccc3[nH]ncc3c1C2 (racemic) |  |  | > 10000 nM | 76 nM | 618 nM | > 1000 nM |  | 
CC12CCC(=O)C(Br)=C1c1ccc3[nH]ncc3c1C2 (racemic) |  |  | 1990 nM |  | 26 nM |  |  | 
CCCCC12CCC(=O)C(C3CC3)=C1c1ccc3[nH]ncc3c1C2 (racemic) |  |  | 422 nM |  | 7 nM |  |  | 
CCC12CCC(=O)C(C)=C1c1ccc3[nH]nc(Br)c3c1C2 (racemic) |  |  | 5880 nM |  | 103 nM |  |  | 
CCC12CCC(=O)C(C)=C1c1ccc3[nH]ncc3c1C2=O (racemic) |  |  | 624 nM |  | 31.8 nM |  |  | 
CCCC12CCC(=O)C(Br)=C1c1ccc3[nH]ncc3c1C2 (racemic) |  |  | 663 nM |  | 5.4 nM |  |  | 
CCCCC12CCC(=O)C=C1c1ccc3[nH]ncc3c1C2 (racemic) |  |  | > 10000 nM |  | 283 nM |  |  | 

Second part, the compound after the results:

bioavailability [1] | AUC [2] | IC50 (Estrogen receptor [3]) | EC50 (Estrogen receptor beta [4]) | IC50 (Estrogen receptor beta [5]) | EC50 (Estrogen receptor [6]) | half-life [7] | clearance [8] | Structure (SMILES)
74% | 1.5 µM·h | 360 nM | 0.6 nM | 2.8 nM | 50 nM | 0.7 h | 36 mL/min/kg | CC[C@@]12CCC(=O)C(C(F)(F)F)=C1c1ccc3[nH]ncc3c1C2
55% | 1 µM·h | 470 nM | 5.8 nM | 7.7 nM | > 1000 nM | 0.9 h | 58 mL/min/kg | CC[C@@]12CCC(=O)C(C3CC3)=C1c1ccc3[nH]ncc3c1C2
 |  | 93 nM |  | 1.1 nM |  |  |  | CCCC[C@@]12CCC(=O)C(CC)=C1c1ccc3[nH]ncc3c1C2
 |  | 82 nM |  | 1.1 nM |  |  |  | CC[C@@]12CCC(=O)C(Cl)=C1c1ccc3[nH]nc(F)c3c1C2
 |  | 23 nM |  | 0.3 nM |  |  |  | CCCC[C@@]12CCC(=O)C(CC)=C1c1ccc3[nH]nc(F)c3c1C2
64% | 0.7 µM·h | 249 nM | 0.7 nM | 2.2 nM | 65 nM | 0.7 h | 74 mL/min/kg | CC[C@@]12CCC(=O)C(Br)=C1c1ccc3[nH]ncc3c1C2
 |  | 139 nM |  | 4.1 nM |  |  |  | CC[C@@]12CCC(=O)C(Cl)=C1c1ccc3[nH]ncc3c1C2=O
25% | 0.9 µM·h | 176 nM |  | 0.8 nM |  | 0.9 h | 64 mL/min/kg | CCCC[C@@]12CCC(=O)C(C(F)(F)F)=C1c1ccc3[nH]ncc3c1C2
 |  | 49.2 nM |  | 1 nM |  |  |  | CCCC[C@@]12CCC(=O)C(C(F)(F)F)=C1c1ccc3[nH]nc(F)c3c1C2
21% | 0.7 µM·h | 40 nM |  | 0.9 nM |  | 1.8 h | 69 mL/min/kg | CCCC[C@@]12CCC(=O)C(C(F)(F)F)=C1c1ccc3[nH]ncc3c1C2=O
 |  | 197 nM | 0.8 nM | 1.6 nM | 33.1 nM |  |  | CCC12CCC(=O)C(Br)=C1c1ccc3[nH]nc(F)c3c1C2 (racemic)
 |  | 223 nM | 1.7 nM | 4 nM | 59 nM |  |  | CCC1=C2c3ccc4[nH]ncc4c3CC2(CC)CCC1=O (racemic)
 |  | 352 nM | 1.5 nM | 8 nM | 49 nM |  |  | CCC12CCC(=O)C(Br)=C1c1ccc3[nH]ncc3c1C2=O (racemic)
